pIC50: −log10 of the molar value. Structures can show the parent of a compound that is named as a salt.
Key:
[1] = biological target: catalytic domain (JH1, amino acids 826-1132) of human JAK2 (Homo sapiens (Human), UniProt O60674); assay: JAK2 LanthaScreen JH1 Binding Assay; conditions: JAK2 JH1 1.5 nM, 50 nM fluorescent tracer, 2 hours at 25° C.; read-out: JH1 BIND IC50
Description: Example A. JAK2 LanthaScreen JH1 Binding Assay
(§1) JAK2 JH1 binding assay utilizes catalytic domain (JH1, amino acids 826-1132) of human JAK2 expressed as N-terminal FLAG-tagged, biotinylated protein in a baculovirus expression system (Carna Biosciences, Product #08-445-20N). The assay was conducted in black 384-well polystyrene plates in a final reaction volume of 20 μL. JAK2 JH1 (1.5 nM) was incubated with compounds (100 nL serially diluted in DMSO) in the presence of 50 nM Fluorescent JAK2-JH1 Tracer and 0.5 nM Streptavidin-Tb cryptate (Cisbio Part #610SATLB) in assay buffer (50 mM Tris, pH=7.5, 10 mM MgCl2, 0.01% Brij-35, 0.1% BSA, 1 mM EGTA, 5% Glycerol and 5 mM DTT). Non-specific binding was accessed in the presence of 2 mM ATP. After incubation for 2 hours at 25° C., LanthaScreen signals were read on a PHERAstar FS plate reader (BMG LABTECH). Data was analyzed with IDBS XLfit and GraphPad Prism 5.0 software using a four parameter dose response curve to determine IC50 for each compound.

[2] = biological target: pseudo-kinase domain (JH2, amino-acids 536-812) of human Wild Type JAK2 (Homo sapiens (Human), UniProt O60674, F794H/W659A/W777A); assay: JAK2 LanthaScreen JH2-WT Binding Assay; conditions: JAK2 JH2-WT 0.145 nM, 50 nM fluorescent tracer, 1 hour at 25° C.; read-out: JH2 BIND WT IC50
Chain of pseudo-kinase domain (JH2, amino-acids 536-812) of human Wild Type JAK2 (O60674 536-812 W659A/W777A/F794H): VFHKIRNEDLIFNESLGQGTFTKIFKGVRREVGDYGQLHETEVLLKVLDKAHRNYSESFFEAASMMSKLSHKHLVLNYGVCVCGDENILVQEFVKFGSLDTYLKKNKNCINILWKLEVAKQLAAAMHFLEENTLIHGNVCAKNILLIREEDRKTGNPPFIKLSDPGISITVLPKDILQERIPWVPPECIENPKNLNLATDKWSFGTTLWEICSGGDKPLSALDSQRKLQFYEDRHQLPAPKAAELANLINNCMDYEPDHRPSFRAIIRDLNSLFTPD
Description: Example B. JAK2 LanthaScreen JH2-WT Binding Assay
as §1, with “The” for “JAK2 JH1 binding assay utilizes catalytic domain (JH1, amino acids 826-1132) of human JAK2 expressed as N-terminal FLAG-tagged, biotinylated protein in a baculovirus expression system (Carna Biosciences, Product #08-445-20N). The”, “JH2-WT (0.145” for “JH1 (1.5”, “JAK2-JH2” for “JAK2-JH1”, “Tracer (MedChem Express Catalog #HY-102055)” for “Tracer”, “0.25” for “0.5”, “1 hour” for “2 hours”

[3] = biological target: pseudo-kinase domain (JH2, amino-acids 536-812) of human V617F mutant JAK2 (Homo sapiens (Human), UniProt O60674, F794H/V617F/W659A/W777A); assay: JAK2 LanthaScreen JH2-V617F Binding Assay; conditions: JAK2 JH2-V617F 0.26 nM, 50 nM fluorescent tracer, 1 hour at 25° C.; read-out: JH2 BIND V617F IC50
Chain of pseudo-kinase domain (JH2, amino-acids 536-812) of human V617F mutant JAK2 (O60674 536-812 V617F/W659A/W777A/F794H): as the sequence (O60674 536-812 W659A/W777A/F794H) above, with V82F counted along it
Description: The assay was conducted in black 384-well polystyrene plates in a final reaction volume of 20 μL. […] Non-specific binding was accessed in the presence of 2 mM ATP. After incubation for 1 hour at 25° C., LanthaScreen signals were read on a PHERAstar FS plate reader (BMG LABTECH). Data was analyzed with IDBS XLfit and GraphPad Prism 5.0 software using a four parameter dose response curve to determine IC50 for each compound.

[4] = biological target: catalytic domain (JH1, amino acids 808-1132) of human JAK2 (Homo sapiens (Human), UniProt O60674); assay: JAK2 HTRF Enzyme Activity Assay; assay type: biochemical; conditions: JAK2 0.015 nM, ATP (30 μM or 1 mM), 60 minutes at 25° C.
Chain of catalytic domain (JH1, amino acids 808-1132) of human JAK2 (O60674 808-1132): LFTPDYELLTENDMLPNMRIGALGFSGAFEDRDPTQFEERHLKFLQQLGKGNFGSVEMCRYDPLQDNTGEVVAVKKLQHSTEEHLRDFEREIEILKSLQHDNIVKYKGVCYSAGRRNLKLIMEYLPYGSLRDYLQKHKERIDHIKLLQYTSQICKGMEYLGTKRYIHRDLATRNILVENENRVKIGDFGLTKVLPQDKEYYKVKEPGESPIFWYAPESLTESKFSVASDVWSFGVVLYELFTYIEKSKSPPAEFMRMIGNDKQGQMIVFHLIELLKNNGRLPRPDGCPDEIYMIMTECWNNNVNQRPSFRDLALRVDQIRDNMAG
Description: Example D. JAK2 HTRF Enzyme Activity Assay
JAK2 enzyme activity assays utilize catalytic domain (JH1, amino acids 808-1132) of human JAK2 expressed as N-terminal His-tagged protein in a baculovirus expression system (BPS Bioscience, Catalog #40450). The assays was conducted in black 384-well polystyrene plates in a final reaction volume of 20 μL. JAK2 (0.015 nM) was incubated with compounds (100 nL serially diluted in DMSO) in the presence of ATP (30 μM or 1 mM) and 500 nM Biotin-labeled […] (SEQ ID NO.: 1) peptide (BioSource International, custom synthesis) in assay buffer (50 mM Tris, pH=7.5, 10 mM MgCl2, 0.01% Brij-35, 0.1% BSA, 1 mM EGTA, 5% Glycerol and 5 mM DTT) for 60 minutes at 25° C. The reactions were stopped by the addition of 10 μL of detection buffer (50 mM Tris, pH 7.8, 0.5 mg/mL BSA, 150 mM NaCl), supplemented with EDTA, LANCE Eu-W1024 anti-phosphotyrosine (PY20), (PerkinElmer, Catalog #AD0067) and Streptavidin SureLight APC (PerkinElmer Catalog #CR130-100), for a final concentration of 15 mM, 1.5 nM and 75 nM, respectively. HTRF signals were read after 30 minutes incubation at room temperature on a PHERAstar FS plate reader (BMG LABTECH). Data was analyzed with IDBS XLfit and GraphPad Prism 5.0 software using a four parameter dose response curve to determine IC50 for each compound.

Chain of catalytic domain (JH1, amino acids 826-1132) of human JAK2 (O60674 826-1132): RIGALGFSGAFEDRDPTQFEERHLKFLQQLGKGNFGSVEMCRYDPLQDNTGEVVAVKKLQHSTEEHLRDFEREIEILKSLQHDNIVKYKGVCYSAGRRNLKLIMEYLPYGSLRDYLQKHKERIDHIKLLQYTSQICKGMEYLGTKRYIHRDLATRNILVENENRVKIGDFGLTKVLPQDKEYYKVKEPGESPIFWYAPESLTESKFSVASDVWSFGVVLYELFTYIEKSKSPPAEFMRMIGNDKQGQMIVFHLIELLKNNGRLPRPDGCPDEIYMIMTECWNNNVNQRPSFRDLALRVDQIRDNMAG

CN1C(=O)NCc2c1cnc1[nH]c(-c3ccc(CN4CCC(S(C)(=O)=O)CC4)cc3)cc21 [Example 1, 4-Methyl-8-(4-((4-(methylsulfonyl)piperidin-1-yl)methyl)phenyl)-1,2,4,7-tetrahydro-3H-pyrrolo[3′,2′:5,6]pyrido[3,4-d]pyrimidin-3-one]
pIC50 [1]: ≥ 7.00
pIC50 [2]: 6.30 to 7.00
pIC50 [3]: 6.00 to 6.30
pIC50 [4]: ≥ 7.00

CC(=O)NCc1ccc(-c2c(-c3ccc(CN4CCC(S(C)(=O)=O)CC4)cc3)[nH]c3ncc4c(c23)CN(C(C)(C)C)C(=O)N4C)cc1 [Example 16, N-(4-(2-(tert-Butyl)-4-methyl-8-(4-((4-(methylsulfonyl)piperidin-1-yl)methyl)phenyl)-3-oxo-2,3,4,7-tetrahydro-1H-pyrrolo[3′,2′:5,6]pyrido[3,4-d]pyrimidin-9-yl)benzyl)acetamide]
pIC50 [1]: ≥ 7.00
pIC50 [2]: ≥ 7.00
pIC50 [3]: ≥ 7.00
pIC50 [4]: ≥ 7.00

CNS(=O)(=O)c1ccc(-c2c(-c3ccc(CN4CCC(S(C)(=O)=O)CC4)cc3)[nH]c3ncc4c(c23)CN(C(C)(C)C)C(=O)N4C)cc1 [Example 17, 4-(2-(tert-Butyl)-4-methyl-8-(4-((4-(methylsulfonyl)piperidin-1-yl)methyl)phenyl)-3-oxo-2,3,4,7-tetrahydro-1H-pyrrolo[3′,2′:5,6]pyrido[3,4-d]pyrimidin-9-yl)-N-methylbenzenesulfonamide, trifluoroacetic acid salt]
pIC50 [1]: ≥ 7.00
pIC50 [2]: ≥ 7.00
pIC50 [3]: ≥ 7.00
pIC50 [4]: ≥ 7.00

CN1C(=O)N(c2ccccc2)Cc2c1cnc1[nH]c(-c3ccc(CN4CCC(S(C)(=O)=O)CC4)cc3)cc21 [Example 2, 4-Methyl-8-(4-((4-(methylsulfonyl)piperidin-1-yl)methyl)phenyl)-2-phenyl-1,2,4,7-tetrahydro-3H-pyrrolo[3′,2′:5,6]pyrido[3,4-b]pyrimidin-3-one]
pIC50 [1]: ≥ 7.00
pIC50 [2]: 6.30 to 7.00
pIC50 [3]: 6.00 to 6.30
pIC50 [4]: ≥ 7.00

CN1C(=O)N(c2ccc(C(=O)O)cc2)Cc2c1cnc1[nH]c(-c3ccc(CN4CCC(S(C)(=O)=O)CC4)cc3)c(-c3ccn(C)c3)c21 [Example 22, 4-(4-Methyl-9-(1-methyl-1H-pyrrol-3-yl)-8-(4-((4-(methylsulfonyl)piperidin-1-yl)methyl)phenyl)-3-oxo-1,3,4,7-tetrahydro-2H-pyrrolo[3′,2′:5,6]pyrido[3,4-d]pyrimidin-2-yl)benzoic acid trifluoroacetic acid salt]
pIC50 [1]: 5.60 to 6.00
pIC50 [2]: ≥ 7.00
pIC50 [3]: ≥ 7.00
pIC50 [4]: 5.60 to 6.00

COCCNc1ccc(N2Cc3c(cnc4[nH]c(-c5ccc(CN6CCC(S(C)(=O)=O)CC6)cc5)cc34)N(C)C2=O)cc1 [Example 8, 2-(4-((2-Methoxyethyl)amino)phenyl)-4-methyl-8-(4-((4-(methylsulfonyl)piperidin-1-yl)methyl)phenyl)-1,2,4,7-tetrahydro-3H-pyrrolo[3′,2′:5,6]pyrido[3,4-d]pyrimidin-3-one]
pIC50 [1]: 6.30 to 7.00
pIC50 [2]: 6.30 to 7.00
pIC50 [3]: 6.00 to 6.30
pIC50 [4]: 6.30 to 7.00

CNC(=O)c1ccc(N2Cc3c(cnc4[nH]c(-c5ccc(CN6CCC(S(C)(=O)=O)CC6)cc5)c(-c5ccc(OC)cc5)c34)N(C)C2=O)cc1 [Example 12, 4-(9-(4-methoxyphenyl)-4-methyl-8-(4-((4-(methylsulfonyl)piperidin-1-yl)methyl)phenyl)-3-oxo-1,3,4,7-tetrahydro-2H-pyrrolo[3′,2′:5,6]pyrido[3,4-d]pyrimidin-2-yl)-N-methylbenzamide, trifluroacetate]
pIC50 [1]: 5.60 to 6.00
pIC50 [2]: ≥ 7.00
pIC50 [3]: ≥ 7.00
pIC50 [4]: 5.60 to 6.00

CS(=O)(=O)C1CCN(Cc2ccc(-c3cc4c5c(cnc4[nH]3)NC(=O)N(C3CCN(S(N)(=O)=O)CC3)C5)cc2)CC1 [Example 7, 4-(8-(4-((4-(methylsulfonyl)piperidin-1-yl)methyl)phenyl)-3-oxo-1,3,4,7-tetrahydro-2H-pyrrolo[3′,2′:5,6]pyrido[3,4-d]pyrimidin-2-yl)piperidine-1-sulfonamide]
pIC50 [1]: ≥ 7.00
pIC50 [2]: 6.00 to 6.30
pIC50 [3]: 5.60 to 6.00
pIC50 [4]: ≥ 7.00

CN1C(=O)N(c2ccc(NC(=O)CC#N)cc2)Cc2c1cnc1[nH]c(-c3ccc(CN4CCC(S(C)(=O)=O)CC4)cc3)cc21 [Example 9, 2-Cyano-N-(4-(4-methyl-8-(4-((4-(methylsulfonyl)piperidin-1-yl)methyl)phenyl)-3-oxo-1,3,4,7-tetrahydro-2H-pyrrolo[3′,2′:5,6]pyrido[3,4-d]pyrimidin-2-yl)phenyl)acetamide]
pIC50 [1]: 6.30 to 7.00
pIC50 [2]: 6.30 to 7.00
pIC50 [3]: 6.30 to 7.00
pIC50 [4]: 6.30 to 7.00

CN1C(=O)N(c2ccc(C(=O)O)cc2)Cc2c1cnc1[nH]c(-c3ccc(CN4CCC(S(C)(=O)=O)CC4)cc3)c(-c3ccc(C4(N)CC4)cc3)c21 [Example 21, 4-(9-(4-(1-Aminocyclopropyl)phenyl)-4-methyl-8-(4-((4-(methylsulfonyl)piperidin-1-yl)methyl)phenyl)-3-oxo-1,3,4,7-tetrahydro-2H-pyrrolo[3′,2′:5,6]pyrido[3,4-d]pyrimidin-2-yl)benzoic acid trifluoroacetic acid salt (1:2)]
pIC50 [1]: 5.60 to 6.00
pIC50 [2]: ≥ 7.00
pIC50 [3]: ≥ 7.00
pIC50 [4]: < 5.60

COc1ccc(-c2c(-c3ccc(CN4CCC(S(C)(=O)=O)CC4)cc3)[nH]c3ncc4c(c23)CN(c2ccc(C(=O)Nc3cccnc3)cc2)C(=O)N4C)cc1 [Example 11, 4-(9-(4-Methoxyphenyl)-4-methyl-8-(4-((4-(methylsulfonyl)piperidin-1-yl)methyl)phenyl)-3-oxo-1,3,4,7-tetrahydro-2H-pyrrolo[3′,2′:5,6]pyrido[3,4-d]pyrimidin-2-yl)-N-(pyridin-3-yl)benzamide, Bistrifluoroacetic Acid Salt]
pIC50 [1]: < 5.60
pIC50 [2]: ≥ 7.00
pIC50 [3]: ≥ 7.00
pIC50 [4]: < 5.60

CN1C(=O)N(c2ccc(C(=O)O)cc2)Cc2c1cnc1[nH]c(-c3ccc(CN4CCC(S(C)(=O)=O)CC4)cc3)c(I)c21 [Example 25, 4-(9-Iodo-4-methyl-8-(4-((4-(methylsulfonyl)piperidin-1-yl)methyl)phenyl)-3-oxo-1,3,4,7-tetrahydro-2H-pyrrolo[3′,2′:5,6]pyrido[3,4-d]pyrimidin-2-yl)benzoic acid Trifluoroacetic Acid Salt]
pIC50 [1]: 6.00 to 6.30
pIC50 [2]: ≥ 7.00
pIC50 [3]: ≥ 7.00
pIC50 [4]: 5.60 to 6.00

From patent US11661422B2, “Tricyclic urea compounds as JAK2 V617F inhibitors” (Incyte Corporation, priority 2020, dated 2023)
